According to the METLIN SMRT retention time set (Domingo-Almenara et al. 2019):

Assay: gradient 5% acetonitrile 3 min, to 50% in 2 min, to 85% in 15 min, held 3 min, 100 µL/min
Conditions: column: Zorbax Extend-C18 2.1 x 50 mm; eluents: water / acetonitrile, 0.1% formic acid
How it was run: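 In both positive and negative ionization mode, a quadrupole time-of-flight mass spectrometer coupled to HPLC analyzed pure standards run in mixtures of ~100 molecules. The Zorbax Extend-C18 column (2.1 × 50 mm, 1.8 μm) was operated at 100 μL/min with water and acetonitrile, each containing 0.1% formic acid. The dead volume was 40 μL and the dwell volume 900 μL. Retention time came from adduct peaks that were computationally picked and individually inspected by hand.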

| SMILES | RP-LC retention time [s] |
| --- | --- |
| COc1cccc(CNC2=NCCNC23CCN(S(=O)(=O)c2ccc(C(C)(C)C)cc2)CC3)c1 | 837 |
| O=C(c1ccccc1Cl)N1CCN(c2cc(-c3ccccc3)[nH]n2)CC1 | 804 |
| COc1cccc(C(=O)NC2CCN(c3cc(-c4ccc(Cl)cc4)[nH]n3)C2)c1OC (stereo not drawn) | 807 |
| O=C(c1ccc(OCCCc2cnc[nH]2)cc1)C1CC1 | 680 |
| COc1cc(CN2CCCC2c2cc(C)on2)cc(OC)c1O (stereo not drawn) | 582 |
| CCCNC(=O)C1(CCO)CCN(c2ncccn2)C1 (stereo not drawn) | 560 |
| CCCCNC(=O)CSc1nnc2c3cc(-c4ccccc4)nn3ccn12 | 780 |
| Cc1ccc(C)c(NC(=O)C2CCCN2S(=O)(=O)c2cc3c(cc2C)NC(=O)C(C)O3)c1 (stereo not drawn) | 845 |
| CS(=O)(=O)N1CCC(OC2CCN(C(=O)c3ccc(Cl)cc3)CC2)CC1 | 767 |
| CCC(C)n1c(=O)c2ccccc2n(Cc2nc(-c3cccc(C(F)(F)F)c3)no2)c1=O (stereo not drawn) | 1300 |
| O=c1n(Cc2nc(-c3ccc(F)c(Br)c3)no2)nc2ccc(-c3ccccc3)nn12 | 1010 |
| CCC1CCCCN1C(=O)Cc1c(C)nn(-c2nc(-c3ccc(C)cc3)cs2)c1C (stereo not drawn) | 1380 |
| COc1ccc(C(O)CN2CCN(c3ncccn3)CC2)cc1OC (stereo not drawn) | 566 |
| Cc1nn(CCCC(=O)N2CCOCC2)c(=O)c2nn(-c3ccccc3)c(C)c12 | 673 |
| Cc1cc(S(=O)(=O)N2C[C@@H](F)C[C@H]2C(=O)N2CCc3ccccc3C2)ccc1F | 959 |
| Cc1cc(S(=O)(=O)N2CCc3c(c(-c4nnc(-c5ccc(F)cc5)o4)nn3C)C2)ccc1F | 992 |
| CCNC(=O)N1CCCC1c1nc(C2CCOCC2)no1 (stereo not drawn) | 612 |
| COc1ccc(-c2nc(C3CC(=O)N(c4ccc(OC)cc4)C3)no2)cc1 (stereo not drawn) | 904 |
| Cc1cc(C(=O)NCC23CCCC=C2NC(=O)CC3)n(C)n1 (stereo not drawn) | 636 |
| Cn1c(C(=O)Nc2cccc(Cl)c2)cc2c(=O)oc3ccccc3c21 | 1050 |
| CN(CC1CCOC1)C(=O)c1cc(F)cc(F)c1 (stereo not drawn) | 690 |
| CCc1nc(-c2csc(S(=O)(=O)N3CCCC(C(=O)Nc4cccc(C#N)c4)C3)c2)no1 (stereo not drawn) | 1010 |
| CCN(C(=O)c1cc2c(=O)oc3ccccc3c2n1C)c1ccccc1 | 919 |

| SMILES | RP-LC retention time [s] |
| --- | --- |
| CCc1ccccc1NC(=O)N1CCC(c2cc(N)on2)CC1 | 751 |
| CCCN1C(=O)c2c(C(=O)NCc3ccc(F)cc3)ncn2CC1(C)C(=O)NCc1ccc(F)cc1 (stereo not drawn) | 778 |
| COc1cccc(C(=O)Nc2nnc(C3CC(=O)N(c4ccccc4)C3)o2)c1 (stereo not drawn) | 690 |
| COC(=O)c1ncn2c1C(=O)N(c1ccc(C)cc1C)C(C)(C(=O)NC1CCCC1)C2 (stereo not drawn) | 753 |
| CCC(=O)N1CCC(C(=O)Nc2ccc(S(=O)(=O)N3CCCC3)cc2)CC1 | 697 |
| COc1ccc2cccc(NC(=O)c3csc(C)n3)c2n1 | 1120 |
| CCOC(=O)c1c(C)[nH]c(CCC(=O)NCCN2CCOCC2)c1C | 597 |
| CCc1cccc(NC(=O)Cn2nc(N3CCCC(C)C3)c3ccccc3c2=O)c1 (stereo not drawn) | 1240 |
| CCCN(C(=O)c1ccco1)c1nc(-c2ccc(C)cc2)cs1 | 1390 |
| Cc1cccc(NC(=O)C2CCCN2S(=O)(=O)c2ccc3c(c2)NC(=O)CO3)c1C (stereo not drawn) | 805 |
| O=C(Nc1cccc(F)c1)N1CCN(Cc2nc3cc(Cl)ccc3o2)CC1 | 784 |
| COc1ccc(-c2csc(C)n2)cc1S(=O)(=O)N1CC=C(c2ccccc2)CC1 | 1130 |
| CCOC(=O)c1nc(N2CCN(c3ccccn3)CC2)c2ccccc2n1 | 580 |
| Cc1ccc(-n2nc(C)c3nc(CCC(=O)N4CCN(c5ccccn5)CC4)c(=O)n(C)c32)cc1 | 627 |
| CCN1CCC2(CC1)N=C(c1ccc(F)cc1)CC(c1cc(Cl)ccc1O)N2 (stereo not drawn) | 635 |
| CCC(=O)N1CCCN(C2=NS(=O)(=O)C(c3ccc(Cl)cc3)=C2C)CC1 | 661 |
| Cc1cc2nc(C(=O)NC3CC3)c(=O)n(C)c2cc1C | 714 |
| Cc1cc(Cl)ccc1S(=O)(=O)N1CCC2(CC1)c1nccn1CCN2C | 697 |
| COc1cccc(-n2c(N3CCCC(C(=O)NCCc4cccs4)C3)nc3ccsc3c2=O)c1 (stereo not drawn) | 879 |
| Cc1ccc(NC(=O)N2CCCC(CC(=O)N3CCC(Cc4ccccc4)CC3)C2)cc1 (stereo not drawn) | 1120 |
| COCC(=O)N[C@@H]1CN(C2CCCCCC2)CC[C@@H]1CO | 561 |
| O=C(Nc1ccc2c(c1)OCO2)N(Cc1ccccn1)Cc1ccco1 | 628 |
| Cc1ccc(-n2cccc2CC(=O)NCc2ccc3c(c2)OCO3)cc1 | 946 |

| SMILES | RP-LC retention time [s] |
| --- | --- |
| Cc1ncc2c(n1)CCN(C(=O)c1ccccc1Br)C2 | 655 |
| Cc1ccn2cc(C(=O)NCCN3CCc4ccccc4C3)nc2c1 | 565 |
| O=C(CSc1cc(N2CCCC2)ncn1)NCc1cccs1 | 601 |
| CC(O)CNC(=O)C1CCN(c2ccc(Sc3ccc(C(C)C)cc3)nn2)CC1 (stereo not drawn) | 704 |
| CC1Oc2ccccc2N(Cc2nc(-c3ccc(F)c(Cl)c3)no2)C1=O (stereo not drawn) | 1190 |
| CCn1c(=O)c(N2CCC(NC(=O)NCc3ccc(F)cc3)CC2)nc2cccnc21 | 850 |
| COc1ccccc1CCC(=O)N1CCN(c2cc(-c3cccs3)[nH]n2)CC1 | 838 |
| COc1ccc(-c2noc(C3CC(=O)N(c4ccccc4)C3)n2)c(OC)c1 (stereo not drawn) | 803 |
| O=C(COc1ccc(F)cc1)N1CCCC1c1nc(-c2ccc(F)cc2F)no1 (stereo not drawn) | 950 |
| CCOc1ccccc1-c1noc(Cn2c(=O)n(CCCOC)c(=O)c3ccccc32)n1 | 1060 |
| O=C1[C@H]2CN(Cc3ccc(F)cc3)C[C@H]2C(=O)N1CCc1ccccc1 | 748 |
| Nc1cc(C2CCN(C(=O)c3ccccc3Br)CC2)no1 | 676 |
| O=C(NCc1ccccc1Cl)C1CCCN(C(=O)NC2CC2)C1 (stereo not drawn) | 652 |
| CCN(CC)CCCNC(=O)c1nnc(-c2ccc(S(=O)(=O)N3CCOCC3)cc2)o1 | 600 |
| COCCN1C(=O)[C@H]2CN(Cc3ccc(C)cc3)C[C@H]2C1=O | 616 |
| Cc1ccc(CNC(=O)C2(C)CCN(S(=O)(=O)c3ccc(C)c(C)c3)CC2)cc1 | 1050 |
| Cc1cc2c(=O)n(CC(=O)Nc3ccc(C(F)(F)F)cc3)ccc2s1 | 706 |
| O=C(CSc1nc2ncccc2[nH]1)NC1CCCC1 | 585 |
| O=C(N[C@H](Cc1ccccc1)C(=O)NCc1cscn1)c1ccccc1 | 738 |
| CCN(CC)c1ccc(-c2noc(CN3CCC4(CC3)OCCO4)n2)cn1 | 579 |
| CCOc1ccccc1C(=O)N1CCC(C(=O)NCC(F)(F)F)CC1 | 665 |
| CCOC(=O)N1CCN(C(=O)Nc2cccc(Cl)c2)CC1 | 732 |
